Laboratory results: publication PMC11684029, “Discovery of VU6024578/BI02982816: An mGlu1 Positive Allosteric Modulator with Efficacy in Preclinical Antipsychotic and Cognition Models” (Journal of Medicinal Chemistry, 2024)
Read-outs that look alike come from different tables or passages of the source.

Key:
[1] = predicted hepatic clearance; format: in vitro ADME, dog
From the text: Across species, 19d had acceptable fraction unbound in both plasma (fu (plasma): 0.03 (human), 0.041 (rat), 0.025 (cyno), 0.039 (dog) and 0.056 (mouse)) and brain (fu (brain): 0.034 (rat) and 0.081 (mouse)).

satellite PK for NOR = format: in vivo; conditions: brain, rat, 210 min postdose
From the text: Based on our previous work with the mGlu1 PAM 4,[6]−[9],[14]−[19] we first evaluated the ability of 19d to reverse MK-801 disruptions of novel object recognition (NOR) in rats (Figure 6).

C57Bl/6 mice = experiment: amphetamine-induced hyperlocomotion (mouse); format: in vivo
Protocol: In parallel with the rat AHL study, we carried out a mouse AHL study to determine if the PK/PD relationship would remain intact across rodent species. Here, amphetamine was dosed to C57Bl/6 mice at 3 mg/kg s.c. to achieve ∼800 beam breaks, followed by the oral administration of 19d at 3, 10, and 30 mg/kg (Figure 8). […] Thus, mGlu1 has sufficient target coverage and PK/PD^24 is established for this paradigm in mouse and agree well with the PK/PD relationship established in rat for both NOR and AHL wherein free brain concentrations at or above the in vitro EC50 facilitates a significant pharmacodynamic response.
Figure 8 Mouse amphetamine-induced hyperlocomotion and reversal by VU6024578 (19d). Amphetamine (3.0 mg/kg s.c.) induced robust hyperlocomotion, which was dose-dependently reversed by oral administration (0.5% Natrasol/0.015% tween 80 in H2O) of 19d. TEXT PRINTED IN THE PICTURE: VU6024578-09: Mean % reversal: -7.7 ± 32.6 (3 mg/kg i.p. + Amphetamine 3 mg/kg s.c.); Mean % reversal: 84.2 ± 10.2 (10 mg/kg i.p. + Amphetamine 3 mg/kg s.c.); Mean % reversal: 90.0 ± 12.7 (30 mg/kg i.p. + Amphetamine 3 mg/kg s.c.)
Adult male C57/bl6 mice are placed in the activity chambers (Med Associates) to habituate. 90 min later the mice were administered VU6024578 (3–30 mg/kg i.p. Ten ml/kg) or vehicle (0.5% natrasol/0.015% Tween 80) and placed back in the activity chambers. Thirty minutes later the animals were administered Amphetamine (3 mg/kg) and placed back in the activity chambers for 1 h. The data for the studies were analyzed by a between-group 2 way analysis of variance for compound dose and time. Total ambulation from 125 to 180 min was analyzed by one-way ANOVA. Each dose group was compared with the vehicle control group. The calculations were performed and graphed using GraphPad Prism (version 4.03, GraphPad, La Jolla, CA).

rats = experiment: rotarod; format: in vivo; conditions: rat, doses up to 10 mg/kg
Protocol: In order to enable our target validation work, we first profiled PAM 19d in a rat locomotor battery to ensure that pharmacodynamic efficacy was not mistaken for gross effects on locomotion.[20] […] PK was performed in parallel to establish a PK/PD relationship.[24]
On the first day, the animals were placed on the rotarod apparatus which was rotating at a speed of 20 rpm. If the rats fall of the bar, the animals were placed back on the apparatus for a total of 2 min. On the day of testing, adult male rats were pretreated with VU6024578 (1–10 mg/kg) 65 min before being placed on the rotarod apparatus. Testing consisted of accelerating rotarod from 4 to 40 rpm over 5 min. The time and final speed when the rats fall off of the apparatus was recorded.

human mGlu1 = target: T1, human mGlu1 (Homo sapiens, UniProt Q13255); experiment: progressive fold-shift assay, operational model of allosterism; format: cell-based
T1 construct: expressed in transfected cells; pcDNA5/TO)
From the text: (§1) To further characterize this novel mGlu1 PAM, we performed progressive fold-shift assays at both human and rat mGlu1 (Figure 4).
(§2) Figure 4 Operational modeling of the effects of increasing concentrations of VU6024578 (19d) on rat (A) and human (B) mGlu1receptors. Increasing amounts of 19d were applied prior to increasing concentrations of glutamate at either rat or human mGlu1. Data were fit in GraphPad Prism as indicated in the Methods section; for panel A, log α was 0.95 and for panel B it was 1.26. Data represent one experiment performed in duplicate.

rat mGlu1 = rat mGlu1 (Rattus norvegicus, UniProt P23385); experiment: as above; format: cell-based
From the text: as §1, §2

5-HT2B = 5-HT2B (Homo sapiens, UniProt P41595); experiment: follow-up functional assay; format: biochemical
Adenosine A1 = target: T2, Adenosine A1 (Homo sapiens, UniProt P30542); experiment: Eurofins radioligand binding panel; conditions: antagonist radioligand
T2 construct: Eurofins
From the text: (§3) Table S1. Eurofins Lead Profiling Screen Data
(§4) This is a radioligand binding panel of 80 targets including GPCRs, ion channels, transporters and nuclear hormones. Biochemical assay results are presented as the percent inhibition of specific […]
Results showing an inhibition or stimulation higher than 50% are considered to represent significant effect and are highlighted […]
Target / Protein Species % Inhibition at 10

SKCa channel = experiment: Eurofins radioligand binding panel; set-up: species or system rat; conditions: antagonist radioligand
From the text: as §3, §4
(§5) Results showing an inhibition or stimulation higher than 50% are considered to represent significant effect and are highlighted

KV channel = experiment: Eurofins radioligand binding panel; set-up: species or system rat; conditions: antagonist radioligand
From the text: as §3, §4, §5

PCP = experiment: Eurofins radioligand binding panel; set-up: species or system rat; conditions: antagonist radioligand
From the text: as §3, §4, §5

P2Y = experiment: Eurofins radioligand binding panel; set-up: species or system rat; conditions: agonist radioligand
From the text: as §3, §4, §5

[2] = test system: Ca2+ channel (L, verapamil site) (phenylalkylamine); experiment: Eurofins radioligand binding panel; set-up: species or system rat; conditions: antagonist radioligand
From the text: as §3, §4, §5

GABA (non-selective) = experiment: Eurofins radioligand binding panel; set-up: species or system rat; conditions: agonist radioligand
From the text: as §3, §4, §5

T1 sequence (Q13255 19-1194): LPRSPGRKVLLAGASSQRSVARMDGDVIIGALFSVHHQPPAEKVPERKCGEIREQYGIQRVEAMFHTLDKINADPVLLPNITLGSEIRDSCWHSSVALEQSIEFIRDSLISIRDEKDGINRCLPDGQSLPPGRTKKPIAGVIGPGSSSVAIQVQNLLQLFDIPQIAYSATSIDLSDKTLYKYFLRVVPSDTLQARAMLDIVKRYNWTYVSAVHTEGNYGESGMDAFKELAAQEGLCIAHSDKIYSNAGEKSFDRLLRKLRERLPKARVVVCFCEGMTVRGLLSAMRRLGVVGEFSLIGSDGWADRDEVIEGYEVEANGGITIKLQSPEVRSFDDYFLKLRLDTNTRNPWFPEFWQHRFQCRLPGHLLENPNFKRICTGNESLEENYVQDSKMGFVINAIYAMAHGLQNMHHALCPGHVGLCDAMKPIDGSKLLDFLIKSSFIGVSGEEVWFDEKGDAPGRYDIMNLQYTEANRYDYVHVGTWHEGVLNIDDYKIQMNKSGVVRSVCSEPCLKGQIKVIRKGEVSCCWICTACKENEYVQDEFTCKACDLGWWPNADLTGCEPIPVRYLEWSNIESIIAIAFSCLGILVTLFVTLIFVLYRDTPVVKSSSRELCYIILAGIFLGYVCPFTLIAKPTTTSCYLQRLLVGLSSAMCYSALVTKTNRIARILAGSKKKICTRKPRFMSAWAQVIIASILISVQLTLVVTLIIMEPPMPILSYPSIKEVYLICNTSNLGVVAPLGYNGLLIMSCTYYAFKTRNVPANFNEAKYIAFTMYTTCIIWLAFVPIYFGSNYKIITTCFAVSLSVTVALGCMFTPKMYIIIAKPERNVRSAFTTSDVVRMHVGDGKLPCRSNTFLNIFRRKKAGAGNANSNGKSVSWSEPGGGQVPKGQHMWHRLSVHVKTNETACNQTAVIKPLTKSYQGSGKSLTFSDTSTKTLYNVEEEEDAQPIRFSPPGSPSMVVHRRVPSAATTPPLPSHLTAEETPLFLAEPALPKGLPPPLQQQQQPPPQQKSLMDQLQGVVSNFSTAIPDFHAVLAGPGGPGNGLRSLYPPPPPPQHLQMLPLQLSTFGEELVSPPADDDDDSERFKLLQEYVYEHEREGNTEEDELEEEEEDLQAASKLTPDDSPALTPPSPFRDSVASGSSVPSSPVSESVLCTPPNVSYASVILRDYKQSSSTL
rat mGlu1, sequence (P23385 19-1199): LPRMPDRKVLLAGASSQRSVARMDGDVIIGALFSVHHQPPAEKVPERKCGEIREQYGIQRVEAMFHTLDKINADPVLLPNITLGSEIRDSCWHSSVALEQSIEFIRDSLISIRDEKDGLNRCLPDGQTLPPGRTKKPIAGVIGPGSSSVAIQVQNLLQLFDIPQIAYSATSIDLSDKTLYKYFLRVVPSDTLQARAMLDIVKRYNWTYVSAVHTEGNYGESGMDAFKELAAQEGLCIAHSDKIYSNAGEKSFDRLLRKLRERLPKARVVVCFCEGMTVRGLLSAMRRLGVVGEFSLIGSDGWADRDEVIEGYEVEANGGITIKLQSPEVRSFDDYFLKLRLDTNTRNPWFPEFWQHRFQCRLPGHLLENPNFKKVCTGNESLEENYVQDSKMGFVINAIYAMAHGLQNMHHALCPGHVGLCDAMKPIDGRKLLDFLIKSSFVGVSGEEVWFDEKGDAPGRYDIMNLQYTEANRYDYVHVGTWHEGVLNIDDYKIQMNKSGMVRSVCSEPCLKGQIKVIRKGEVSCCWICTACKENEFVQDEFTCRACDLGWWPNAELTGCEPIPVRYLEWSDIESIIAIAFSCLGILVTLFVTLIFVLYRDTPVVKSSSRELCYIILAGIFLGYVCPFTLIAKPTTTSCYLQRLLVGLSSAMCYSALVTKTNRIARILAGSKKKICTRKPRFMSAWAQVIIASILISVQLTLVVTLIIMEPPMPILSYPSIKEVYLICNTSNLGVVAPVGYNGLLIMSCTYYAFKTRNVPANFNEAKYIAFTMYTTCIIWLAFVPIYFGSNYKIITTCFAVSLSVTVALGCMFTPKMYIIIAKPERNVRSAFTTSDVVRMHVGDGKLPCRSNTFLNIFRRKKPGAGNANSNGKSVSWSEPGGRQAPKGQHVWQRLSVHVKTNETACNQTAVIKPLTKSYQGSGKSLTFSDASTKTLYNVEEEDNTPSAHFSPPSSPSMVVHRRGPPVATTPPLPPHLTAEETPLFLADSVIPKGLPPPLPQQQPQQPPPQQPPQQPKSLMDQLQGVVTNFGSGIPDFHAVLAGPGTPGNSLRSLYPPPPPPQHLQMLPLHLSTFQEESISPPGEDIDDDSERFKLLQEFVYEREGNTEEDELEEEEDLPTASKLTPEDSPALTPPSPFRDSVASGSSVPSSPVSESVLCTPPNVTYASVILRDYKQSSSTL
T2 sequence (P30542 whole entry): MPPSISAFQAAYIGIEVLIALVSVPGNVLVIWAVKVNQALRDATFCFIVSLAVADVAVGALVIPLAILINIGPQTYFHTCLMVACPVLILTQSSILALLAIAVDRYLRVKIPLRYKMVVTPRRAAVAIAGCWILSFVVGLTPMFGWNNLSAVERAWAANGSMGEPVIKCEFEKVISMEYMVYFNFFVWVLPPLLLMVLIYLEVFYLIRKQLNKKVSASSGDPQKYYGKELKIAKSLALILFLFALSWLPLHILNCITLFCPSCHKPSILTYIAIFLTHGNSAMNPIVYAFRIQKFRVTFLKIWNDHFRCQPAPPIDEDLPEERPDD
5-HT2B, sequence (P41595 whole entry): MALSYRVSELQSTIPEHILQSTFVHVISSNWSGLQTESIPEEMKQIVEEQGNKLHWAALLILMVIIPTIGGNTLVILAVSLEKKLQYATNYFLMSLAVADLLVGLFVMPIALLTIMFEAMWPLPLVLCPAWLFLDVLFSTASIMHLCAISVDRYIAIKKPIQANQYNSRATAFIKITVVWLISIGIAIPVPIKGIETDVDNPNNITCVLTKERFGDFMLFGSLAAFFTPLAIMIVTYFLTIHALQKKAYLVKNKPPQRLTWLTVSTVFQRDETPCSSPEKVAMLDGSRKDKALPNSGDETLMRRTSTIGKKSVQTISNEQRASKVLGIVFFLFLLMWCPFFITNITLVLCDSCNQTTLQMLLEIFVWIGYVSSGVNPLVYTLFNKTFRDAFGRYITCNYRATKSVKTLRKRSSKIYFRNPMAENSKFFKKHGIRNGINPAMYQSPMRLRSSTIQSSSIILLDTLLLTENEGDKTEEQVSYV

Cn1nc(-c2ccnn2C)cc1CNC(=O)c1cc(-c2ccco2)ccc1Cl [Compound 19d, 2-Chloro-N-((1,2′-dimethyl-1H,2’H-[3,3′-bipyrazol]-5-yl)methyl)-5-(furan-2-yl)benzamide]
CLhep, dog [1]: 23 mL/min/kg | concentration at 210 min (satellite PK for NOR; 10 mg/kg PO, read-out: free brain concentration): 73 nM | Kp at 3.5 h (satellite PK for NOR; PO): 0.34 | reversal of AHL, in words (C57Bl/6 mice; 3 mg/kg): no reversal | Mean % reversal of AHL (C57Bl/6 mice; 3 mg/kg i.p.): -7.7 ± 32.6% | reversal of AHL, in words (C57Bl/6 mice; 10 mg/kg): Full reversal | Mean % reversal of AHL (C57Bl/6 mice; 10 mg/kg i.p.): 84.2 ± 10.2% | reversal of AHL, in words (C57Bl/6 mice; 30 mg/kg): Full reversal | Mean % reversal of AHL (C57Bl/6 mice; 30 mg/kg i.p.): 90.0 ± 12.7% | rotarod (rats): lack of effect | Kb (human mGlu1; human mGlu1, operational model of allosterism, read-out: estimated KB): 219 nM | log α (human mGlu1; panel B (human), one experiment in duplicate): 1.26 | EC50 (human mGlu1; printed in Figure 4B): 46 nM | EC50 (rat mGlu1; in Figure 4A): 44 nM | log α (rat mGlu1; panel A (rat), one experiment in duplicate): 0.95 | Kb (rat mGlu1; rat mGlu1, operational model of allosterism, read-out: estimated KB): 1040 nM | Kb (rat mGlu1; rat mGlu1, printed in Figure 4A, read-out: KB): 1040 nM | functional activity at 5-HT2B (5-HT2B): inactive | inhibition at 10 µM (Adenosine A1): 8% | % Inhibition at 10 µM (SKCa channel): 2% | % Inhibition at 10 µM (KV channel): 8% | % Inhibition at 10 µM (PCP): 2% | % Inhibition at 10 µM (P2Y): 23% | % Inhibition at 10 µM [2]: -16% | % Inhibition at 10 µM (GABA (non-selective)): -3%
